Source: ChEMBL document CHEMBL4229543, “Squaramides as novel class I and IIB histone deacetylase inhibitors for topical treatment of cutaneous t-cell lymphoma” (Bioorg Med Chem Lett, 2018)
Values after ≈ are worked out from the molar mass of the structure shown.

Tests used:
[1] = Clearance in human hepatocytes assessed per million cells at 1 uM after 5 to 90 mins by LC-MS/MS analysis; assay type: ADME, cell-based, Hepatocyte; conditions: read-out: CLH
HuT78 = assay: Pro-apoptotic activity in human HUT78 cells after 18 hrs by caspase-Glo 3/7 assay; assay type: functional, cell-based; conditions: HuT78, 18 h
Histone deacetylase 1 = Histone deacetylase 1 (Homo sapiens, UniProt Q13547); assay: Inhibition of human recombinant HDAC1 using Fluor de Lys as substrate after 2 hrs by fluorescence method
Histone deacetylase 1, sequence (Q13547 whole entry): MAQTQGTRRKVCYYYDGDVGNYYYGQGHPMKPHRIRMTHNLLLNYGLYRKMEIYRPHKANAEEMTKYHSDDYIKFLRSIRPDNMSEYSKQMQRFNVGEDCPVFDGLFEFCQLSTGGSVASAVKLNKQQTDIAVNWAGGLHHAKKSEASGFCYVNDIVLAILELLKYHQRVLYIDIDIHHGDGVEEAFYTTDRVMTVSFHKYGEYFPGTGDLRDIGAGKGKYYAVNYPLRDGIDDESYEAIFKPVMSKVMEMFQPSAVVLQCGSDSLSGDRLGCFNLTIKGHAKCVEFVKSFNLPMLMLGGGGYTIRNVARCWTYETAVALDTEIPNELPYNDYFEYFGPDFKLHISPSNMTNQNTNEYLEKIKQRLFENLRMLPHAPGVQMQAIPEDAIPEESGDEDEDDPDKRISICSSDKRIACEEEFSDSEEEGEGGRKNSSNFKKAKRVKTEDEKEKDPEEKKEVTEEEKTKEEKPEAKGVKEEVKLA

[2] = Solubility in pH 7.4 phosphate buffer solution at 100 uM after 24 hrs by HPLC method; assay type: physicochemical; conditions: for solubility at 24 h, 100 µM: phosphate buffer, pH 7.4
[3] = Solubility in PG/EtOH (96%) at 30 mg/mL after 24 hrs by UV-spectrometric method; assay type: physicochemical; conditions: for solubility at 24 h: PG/EtOH (96%)

Compound	hepatocyte CLint at 1 µM [1]	EC50 (HuT78)	Ki (Histone deacetylase 1)	solubility at 24 h, 100 µM [2]	solubility at 24 h [3]	solubility ([2]; buffer, pH 7.4, 24 h, 100 µM)	solubility ([3]; 24 h)
COc1ccc(Nc2c(NC3(CCCCC(=O)NO)CCC3)c(=O)c2=O)cc1	17 µL/min/1e6 cells	12 nM	0.063 nM	82 µM (≈ 31.8 µg/mL)	–	–	–
Cc1ccccc1Nc1c(NCCCCCC(=O)NO)c(=O)c1=O	< 5 µL/min/1e6 cells	280 nM	4.4 nM	89 µM (≈ 29.5 µg/mL)	12000 µM (≈ 3980 µg/mL)	–	–
Cc1ccc(Nc2c(NCCCCCC(=O)NO)c(=O)c2=O)cc1	7.2 µL/min/1e6 cells	1.7 nM	0.057 nM	8.1 µM (≈ 2.68 µg/mL)	1800 µM (≈ 596 µg/mL)	–	–
C[C@H](CCCCC(=O)NO)Nc1c(Nc2ccc(N(C)C)cc2)c(=O)c1=O	< 5 µL/min/1e6 cells	13 nM	2.7 nM	80 µM (≈ 30 µg/mL)	27000 µM (≈ 10100 µg/mL)	–	–
Cc1ccc([C@H](C)Nc2c(NCCCCCC(=O)NO)c(=O)c2=O)cc1	< 5 µL/min/1e6 cells	130 nM	2.3 nM	76 µM (≈ 27.3 µg/mL)	5600 µM (≈ 2010 µg/mL)	–	–
O=C(CCCCNc1c(Nc2ccccc2)c(=O)c1=O)NO	< 5 µL/min/1e6 cells	290 nM	12 nM	87 µM (≈ 26.4 µg/mL)	32000 µM (≈ 9710 µg/mL)	–	–
CC[C@H](Nc1c(NCCCCCC(=O)NO)c(=O)c1=O)c1ccccc1	< 5 µL/min/1e6 cells	170 nM	9.4 nM	75 µM (≈ 27 µg/mL)	57000 µM (≈ 20500 µg/mL)	–	–
O=C(CCCCCNc1c(Nc2ccc(C(F)(F)F)cc2)c(=O)c1=O)NO	11 µL/min/1e6 cells	4 nM	0.23 nM	4.5 µM (≈ 1.73 µg/mL)	4700 µM (≈ 1810 µg/mL)	–	–
C[C@H](CCCCC(=O)NO)Nc1c(Nc2ccc(OC(F)(F)F)cc2)c(=O)c1=O	31 µL/min/1e6 cells	10 nM	0.58 nM	27 µM (≈ 11.2 µg/mL)	70000 µM (≈ 29100 µg/mL)	–	–
CN(C)c1ccc(Nc2c(NCCCCCC(=O)NO)c(=O)c2=O)cc1	< 5 µL/min/1e6 cells	6.2 nM	0.91 nM	12 µM (≈ 4.32 µg/mL)	1400 µM (≈ 505 µg/mL)	–	–
O=C(CCCCCNc1c(NC2CCCCC2)c(=O)c1=O)NO	< 5 µL/min/1e6 cells	84 nM	1.4 nM	91 µM (≈ 29.4 µg/mL)	8700 µM (≈ 2810 µg/mL)	–	–
COc1cc(Nc2c(NCCCCCC(=O)NO)c(=O)c2=O)ccc1N(C)C	< 5 µL/min/1e6 cells	290 nM	0.5 nM	93 µM (≈ 36.3 µg/mL)	2600 µM (≈ 1020 µg/mL)	–	–
C[C@@H](CCCCC(=O)NO)Nc1c(Nc2ccc(N(C)C)cc2)c(=O)c1=O	3.6 µL/min/1e6 cells	44 nM	4.3 nM	89 µM (≈ 33.3 µg/mL)	28000 µM (≈ 10500 µg/mL)	–	–
C[C@H](Nc1c(NCCCCCC(=O)NO)c(=O)c1=O)c1ccccc1	< 5 µL/min/1e6 cells	220 nM	2.5 nM	73 µM (≈ 25.2 µg/mL)	28000 µM (≈ 9670 µg/mL)	–	–
O=C(CCCCCCNc1c(Nc2ccccc2)c(=O)c1=O)NO	< 5 µL/min/1e6 cells	26 nM	0.56 nM	6 µM (≈ 1.99 µg/mL)	1800 µM (≈ 596 µg/mL)	–	–
Cc1cccc([C@@H](C)Nc2c(NCCCCCC(=O)NO)c(=O)c2=O)c1	< 5 µL/min/1e6 cells	160 nM	11 nM	89 µM (≈ 32 µg/mL)	82000 µM (≈ 29500 µg/mL)	–	–
Cc1ccccc1[C@H](C)Nc1c(NCCCCCC(=O)NO)c(=O)c1=O	< 5 µL/min/1e6 cells	560 nM	2.3 nM	92 µM (≈ 33.1 µg/mL)	47000 µM (≈ 16900 µg/mL)	–	–

Compound	hepatocyte CLint at 1 µM [1]	EC50 (HuT78)	Ki (Histone deacetylase 1)	solubility at 24 h, 100 µM [2]	solubility at 24 h [3]	solubility ([2]; buffer, pH 7.4, 24 h, 100 µM)	solubility ([3]; 24 h)
C[C@H](CCCCC(=O)NO)Nc1c(Nc2ccc3cc(C(F)(F)F)[nH]c3c2)c(=O)c1=O	10 µL/min/1e6 cells	7.2 nM	0.15 nM	10 µM (≈ 4.38 µg/mL)	21000 µM (≈ 9210 µg/mL)	–	–
Cc1cc2ccc(Nc3c(NCCCCCC(=O)NO)c(=O)c3=O)cc2[nH]1	< 5 µL/min/1e6 cells	28 nM	0.27 nM	4.4 µM (≈ 1.63 µg/mL)	9100 µM (≈ 3370 µg/mL)	–	–
O=C(CCCCCNc1c(NCc2ccccc2)c(=O)c1=O)NO	< 4.8 µL/min/1e6 cells	270 nM	7.3 nM	75 µM (≈ 24.9 µg/mL)	5700 µM (≈ 1890 µg/mL)	–	–
Cc1cccc(Nc2c(NCCCCCC(=O)NO)c(=O)c2=O)c1	18 µL/min/1e6 cells	26 nM	0.39 nM	79 µM (≈ 26.2 µg/mL)	11000 µM (≈ 3650 µg/mL)	–	–
CC(C)(Nc1c(NCCCCCC(=O)NO)c(=O)c1=O)c1ccccc1	< 5 µL/min/1e6 cells	1100 nM	11 nM	88 µM (≈ 31.6 µg/mL)	> 84000 µM	–	–
COc1ccc(Nc2c(NC(C)(C)CCCCC(=O)NO)c(=O)c2=O)cc1	9.2 µL/min/1e6 cells	5.5 nM	0.056 nM	99 µM (≈ 37.2 µg/mL)	–	–	–
O=C(CCCCCNc1c(Nc2ccccc2)c(=O)c1=O)NO	< 4.8 µL/min/1e6 cells	28 nM	0.29 nM	47 µM (≈ 14.9 µg/mL)	2200 µM (≈ 698 µg/mL)	–	–
C[C@@H](Nc1c(NCCCCCC(=O)NO)c(=O)c1=O)c1ccccc1	< 5 µL/min/1e6 cells	100 nM	4.8 nM	80 µM (≈ 27.6 µg/mL)	39000 µM (≈ 13500 µg/mL)	–	–
O=C(CCCCC(Cc1ccccc1)Nc1c(Nc2ccc(C(F)(F)F)cc2)c(=O)c1=O)NO (racemic)	6.6 µL/min/1e6 cells	38 nM	1.9 nM	–	5700 µM (≈ 2710 µg/mL)	< 1 µM	–
CC(CCCCC(=O)NO)Nc1c(Nc2ccc(C(F)(F)F)cc2)c(=O)c1=O (racemic)	21 µL/min/1e6 cells	18 nM	0.28 nM	30 µM (≈ 12 µg/mL)	20000 µM (≈ 7990 µg/mL)	–	–
CC(C)C(CCCCC(=O)NO)Nc1c(Nc2ccc(C(F)(F)F)cc2)c(=O)c1=O (racemic)	27 µL/min/1e6 cells	280 nM	12 nM	5.3 µM (≈ 2.27 µg/mL)	6300 µM (≈ 2690 µg/mL)	–	–
CC(CCCCC(=O)NO)Nc1c(Nc2ccccc2)c(=O)c1=O (racemic)	< 5 µL/min/1e6 cells	32 nM	0.69 nM	93 µM (≈ 30.8 µg/mL)	46000 µM (≈ 15200 µg/mL)	–	–
CCC(CCCCC(=O)NO)Nc1c(Nc2ccc(C(F)(F)F)cc2)c(=O)c1=O (racemic)	25 µL/min/1e6 cells	21 nM	0.51 nM	6.6 µM (≈ 2.73 µg/mL)	25000 µM (≈ 10300 µg/mL)	–	–
COc1ccc(Nc2c(NC(C)CCCCC(=O)NO)c(=O)c2=O)cc1 (racemic)	7.1 µL/min/1e6 cells	12 nM	0.27 nM	85 µM (≈ 30.7 µg/mL)	11000 µM (≈ 3980 µg/mL)	–	–
Cc1ccc(Nc2c(NC(C)CCCCC(=O)NO)c(=O)c2=O)cc1 (racemic)	< 6.5 µL/min/1e6 cells	5.6 nM	0.097 nM	83 µM (≈ 28.7 µg/mL)	4900 µM (≈ 1690 µg/mL)	–	–
O=C(CCCCCCC(=O)Nc1ccccc1)NO [VORINOSTAT]	< 5 µL/min/1e6 cells	–	–	87 µM (≈ 23 µg/mL)	–	–	32000 µM (≈ 8460 µg/mL)
